Entries after “also recorded” stand apart in the source; their conditions may differ.
Tested on: SKOV3
Assay: SKOV3 ovarian tumor model, C4-27z CAR-T cells plus exogenous cytokines
Format: in vivo, NSG mice
Details: for antitumor efficacy of cytokine in combination with CAR-T cell injection: 5 μg daily i.p. for 7 days with 5×10^6 C4-27z CAR-T cells

Substance | antitumor efficacy of cytokine in combination with CAR-T cell injection | CD4+ and CD8+ T cells in peripheral blood (15 days after adoptive transfer) | human T cell number in the tumor (73 days after tumor challenge)
IL-15: common γ-chain family cytokine, exogenous | best tumor suppression | Highest numbers of CD4+ and CD8+ T cells | highest T cell number in the tumor
IL-21: common γ-chain family cytokine, exogenous | best tumor suppression | – | –
IL-18: immunostimulatory, proinflammatory cytokine belonging to the IL-1 family | heaviest tumor burden; also recorded: no enhanced effect on antitumor efficacy | – | –

Source: patent US20260078341A1, “TREATMENT OF CANCER USING CHIMERIC ANTIGEN RECEPTOR” (Novartis AG, priority 2014, published 2026)
